Source: patent publication US11873298B2, “Compounds and uses thereof” (JANSSEN PHARMACEUTICA NV, priority 2017, dated 2024)
pIC50: −log10 of the molar value. “And” between values parts separate entries of the source, which are not always exact repeats. Equal entries are not always repeated.

Columns and labels:
Assay type in all cases: cell-based
[1] = biological target: T1, Ole1 (Saccharomyces cerevisiae, UniProt P21147); test: Growth inhibition of yeast strain expressing Ole1 as sole desaturase; conditions: for pIC50 / OLE1 % Max Inhibition: yeast strain expressing Ole1 as sole desaturase
T1 construct: expressed in transfected cells; host or cells: S. cerevisiae ole1Δ strain (W303 pdr1Δ pdr3Δ background), plasmid pRS316 with TDH3 promoter and CYC1 terminator
T1 sequence (P21147 1-510): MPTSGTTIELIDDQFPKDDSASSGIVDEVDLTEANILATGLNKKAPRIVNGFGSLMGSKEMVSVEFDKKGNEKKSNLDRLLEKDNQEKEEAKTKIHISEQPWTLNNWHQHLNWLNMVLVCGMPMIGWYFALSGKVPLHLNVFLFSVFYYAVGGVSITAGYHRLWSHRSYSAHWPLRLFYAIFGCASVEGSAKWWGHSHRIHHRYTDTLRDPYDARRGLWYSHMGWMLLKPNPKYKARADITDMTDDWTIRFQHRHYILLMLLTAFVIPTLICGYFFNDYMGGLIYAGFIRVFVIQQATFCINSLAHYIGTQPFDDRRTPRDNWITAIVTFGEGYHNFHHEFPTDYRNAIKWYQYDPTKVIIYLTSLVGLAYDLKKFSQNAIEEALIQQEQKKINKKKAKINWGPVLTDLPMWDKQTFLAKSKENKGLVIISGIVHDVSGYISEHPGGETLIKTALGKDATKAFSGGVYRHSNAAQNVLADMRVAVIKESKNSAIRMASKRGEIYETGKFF
Method: Strain oleΔ (yeast ole1 deletion mutant) was constructed by deleting OLE1 with NAT-MX6 in BY4741, amplifying the deletion cassette from the genomic DNA of the resulting strain with primers flanking the ORF by 1000 bp upstream and downstream, transforming the resulting deletion cassette into W303 pdr1Δ pdr3Δ, and plating transformants on YPD media containing G418 (200 μg/mL) and nourseothricin ([…]) with 0.01% TWEEN®-20 and 0.5 mM oleic and palmitoleic acids.
The coding sequence of yeast OLE1 was also cloned into this plasmid). These clones were then transformed into the ole1Δ strain and plated on CSM-Ura media (CSM lacking uracil) with 2% glucose (w/v) and independent colonies were isolated and amplified.
All compound profiling experiments were performed using the same basic protocol. Different genetic backgrounds (e.g., gene deletions) or conditions (e.g., addition of oleic and palmitoleic acid) were replaced as indicated below.
Yeast were cultured using standard techniques in complete synthetic media (CSM) and yeast nitrogen base supplemented with 2% (w/v) carbon source (glucose, raffinose, or galactose) to regulate the expression of the toxic disease protein. An initial starter culture was inoculated in 3 mL CSM-Glucose media and incubated overnight in a 30° C. shaker incubator (225 rpm). Saturated morning cultures were then diluted 1:20 in fresh CSM-Raffinose media and grown for 6 h to an OD600 (optical density) of ˜0.4-0.8 at 30° C. with shaking.
Compound administration was performed in two separate steps. First, 15 μL of CSM-Galactose (induces expression of toxic protein) was dispensed into clear 384 well assay plates using a MULTIDROP™ Combi reagent dispenser. […] The cultures described above were then diluted to a 2× concentration (0.03 and 0.08 for alpha-synuclein and ApoE, final ODsoo of 0.015 and 0.04) in CSM-Galactose. For wild-type and Ole1/SCD1/SCD5 plasmid-containing strains, the 2× cell density was 0.02. […] For 96-well assays (FIGS. 1A and 1B), compound dilutions in DMSO were generated in 96 well plates and 1 μL was manually pipetted into 96 well clear bottom assay plates.
For experiments using a plasmid-borne copy of Ole1, SCD1, or SCD5 (FIGS. 3B, 6, and 7), media lacking uracil (SX-Ura, where X is glucose, raffinose, or galactose), was used for all steps of the compound profiling protocol to ensure its maintenance throughout the assay.
After yeast delivery, assay plates were incubated under humidified conditions at 30° C. for 24 to 40 h. ApoE4 rescue experiments were stopped at 24 h, aSyn experiments at 40 h, Ole1 at 24 h, and SCD1/SCD5 at 40 h. The growth of yeast was monitored by reading the ODsoo of each well using a microplate reader (Perkin Elmer EnVision™).

[2] = biological target: T2, SCD1 (Homo sapiens, UniProt O00767); test: Growth inhibition of humanized yeast strain expressing SCD1 as sole desaturase; conditions: for pIC50 / SCD1 % Max Inhibition: humanized yeast strain expressing SCD1
T2 construct: host or cells: S. cerevisiae ole1Δ strain (W303 pdr1Δ pdr3Δ background), plasmid pRS316 with TDH3 promoter and CYC1 terminator
T2 sequence (O00767 1-359): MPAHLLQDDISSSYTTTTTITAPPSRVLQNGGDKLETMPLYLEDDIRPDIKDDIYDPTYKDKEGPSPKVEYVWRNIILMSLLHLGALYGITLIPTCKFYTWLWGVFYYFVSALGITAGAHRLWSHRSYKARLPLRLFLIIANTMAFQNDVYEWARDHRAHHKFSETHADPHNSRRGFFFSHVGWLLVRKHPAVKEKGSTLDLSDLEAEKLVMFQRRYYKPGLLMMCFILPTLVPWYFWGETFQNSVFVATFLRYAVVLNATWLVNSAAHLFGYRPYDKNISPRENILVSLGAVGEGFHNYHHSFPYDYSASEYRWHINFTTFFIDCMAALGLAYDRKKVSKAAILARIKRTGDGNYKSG
How it was run: (§1)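 ole1Δ yeast (W303 pdr1Δ pdr3Δ background) carrying plasmid-borne Ole1, SCD1 or SCD5, grown in uracil-free media; cultures pre-grown in raffinose, seeded at 2× density 0.02 in galactose media with compound. Growth read as OD600 after 24 h at 30° C. for Ole1, 40 h for SCD1/SCD5.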

[3] = biological target: T3, SCD5 (Homo sapiens, UniProt Q86SK9); test: Growth inhibition of humanized yeast strain expressing SCD5 as sole desaturase; conditions: for pIC50 / SCD5 % Max Inhibition: humanized yeast strain expressing SCD5
T3 construct: host or cells: S. cerevisiae ole1Δ strain (W303 pdr1Δ pdr3Δ background), plasmid pRS316 with TDH3 promoter and CYC1 terminator
T3 sequence (Q86SK9 1-330): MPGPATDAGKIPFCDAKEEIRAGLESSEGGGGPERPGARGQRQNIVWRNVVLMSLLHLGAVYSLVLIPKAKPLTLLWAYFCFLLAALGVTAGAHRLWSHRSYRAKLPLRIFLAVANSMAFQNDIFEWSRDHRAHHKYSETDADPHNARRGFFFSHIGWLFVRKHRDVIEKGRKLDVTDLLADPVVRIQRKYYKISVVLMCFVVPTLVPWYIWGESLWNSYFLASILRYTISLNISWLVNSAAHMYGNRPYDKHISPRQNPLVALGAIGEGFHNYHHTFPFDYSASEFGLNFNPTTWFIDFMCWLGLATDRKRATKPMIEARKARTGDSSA
How it was run: as §1

| Compound | pIC50 [1] | OLE1 % Max Inhibition [1] | pIC50 [2] | SCD1 % Max Inhibition [2] | pIC50 [3] | SCD5 % Max Inhibition [3] | growth of yeast expressing OLE1 in presence of inhibitor ([1]; FIG. 6) | half-maximal inhibitory concentration (IC50) ([2]; SCD1 humanized strain, FIG. 6) | half-maximal inhibitory concentration (IC50) ([3]; SCD5 humanized strain, FIG. 6) |
| --- | --- | --- | --- | --- | --- | --- | --- | --- | --- |
| Cc1nn(C)c2cc(-c3noc(C4CCN(C(=O)CNC(=O)c5ccccc5)CC4(F)F)n3)ccc12 (centres unmarked) [Compound 244] | < 4.35 | 3.34% and 1.29% | < 4.35 | 15.54% and 8.51% | < 4.35 | 2.85% and 2.47% |  |  |  |
| Cc1nn(C)c2cc(-c3noc(N4CCN(C(=O)c5cc(F)ccc5C(F)(F)F)CC4)n3)ccc12 [Compound 293] | 4.46 | 66.4% | < 4.35 | 12.3% | < 4.35 | 11.9% |  |  |  |
| Cc1nn(C)c2cc(-c3nsc(C4CCN(C(=O)CNC(=O)c5ccccc5)CC4)n3)ccc12 [Compound 250] | < 4.35 | 4.41% |  | 86.09% | < 4.35 | 14.48% |  |  |  |
| Cc1nn(C)c2cc(-c3noc(C4CCN(C(=O)[C@H](NC(=O)c5ccccc5)C5CC5)CC4)n3)ccc12 [Compound 191] | < 4.35 | 89.31% | < 4.35 | 81.79% | < 4.35 | 6.72% |  |  |  |
| Cc1ncc2ccc(-c3noc(C4CCN(C(=O)CNC(=O)c5ccccc5)CC4)n3)cn12 [Compound 215] | < 4.35 | 48.68% | < 4.35 | 88.23% | < 4.35 | 78.96% |  |  |  |
| Cc1nn(C)c2cc(-c3noc(C4CCN(C(=O)[C@H]5CCN(C(=O)c6ccccc6)C5)CC4)n3)ccc12 [Compound 239] | < 4.35 | 29.21% | < 4.35 | 75.58% | < 4.35 | 6.02% |  |  |  |
| Cc1nn(C)c2cc(-c3noc(C4CCN(C(=O)CNC(=O)c5ccsc5)CC4)n3)ccc12 [Compound 222] | < 4.35 | 3.59% | < 4.35 | 40.42% | < 4.35 | 1.92% |  |  |  |
| Cc1nn(C)c2cc(-c3noc(C4CCN(C(=O)CC(C)(C)C)CC4)n3)ccc12 [Compound 263] | < 4.35 | 8.71% |  | 18.81% | < 4.35 | 7.20% |  |  |  |
| Cc1nn(C)c2cc(-c3noc(C4CCN(C(=O)[C@H]5CN(c6ccccc6)C(=O)O5)CC4)n3)ccc12 [Compound 173] | < 4.35 | 99.75% | < 4.35 | 78.07% | 4.53 | 42.09% |  |  |  |
| COc1ccc(-c2noc(C3CCN(C(=O)CNC(=O)c4ccccc4)CC3)n2)cc1OC(C)C [Compound 274] | < 4.35 | 75.9% |  | 75.3% | < 4.35 | 67.0% |  |  |  |
| Cc1nn(C(C)C)c2cc(-c3noc(C4CCN(C(=O)OC(C)(C)C)CC4)n3)ccc12 [Compound 343] | < 4.35 | 84.7% |  | 59.1% | < 4.35 | 23.2% |  |  |  |
| CCNCc1nc(-c2ccc3c(c2)N(CC)C(=O)CO3)no1 [Compound 493] | < 4.35 | 91.16% |  | 68.84% | 4.52 | 60.28% |  |  |  |
| O=C(C1CC(=O)N(c2ccccc2)C1)N1CCC(c2nc(N3CC4(COC4)C3)no2)CC1 (centres unmarked) [Compound 231] | < 4.35 | 29.53% | < 4.35 | 80.00% | < 4.35 | 3.11% |  |  |  |
| Cc1nn(C)c2cc(-c3noc(C4CCN(C(=O)C5CC(=O)N(c6ccc(F)cc6)C5)CC4)n3)ccc12 (centres unmarked) [Compound 188] | < 4.35 | 4.70% | < 4.35 | 78.63% | < 4.35 | 4.51% |  |  |  |
| CCc1nn(C)c2cc(-c3noc(C4CCN(C(=O)CNC(=O)c5ccccc5)CC4)n3)ccc12 [Compound 309] | < 4.35 | 8.0% |  | 80.6% | < 4.35 | 14.7% |  |  |  |
| Cc1nnc(-c2ccc(N3CCC(Oc4cc(F)ccc4Cl)CC3)nn2)o1 [CAY10566, reference compound] |  |  |  |  |  |  | resistant | low nanomolar | low nanomolar |
| COc1ccc(-c2noc(CCNC(=O)COc3cc(O)c4c(c3)OC(C)(C)CC4=O)n2)cc1OC [Compound 486] | < 4.35 | 103.51% |  | 76.95% | < 4.35 | 72.76% |  |  |  |
| Cc1nn(C)c2cc(-c3noc(C4CCN(C(=O)C5CC(=O)N(c6ccccn6)C5)CC4)n3)ccc12 (centres unmarked) [Compound 195] | < 4.35 | 3.86% | < 4.35 | 75.08% | < 4.35 | 9.78% |  |  |  |
| Cc1cc(N2CC(C(=O)N3CCC(c4nc(-c5ccc6c(C)nn(C)c6c5)no4)CC3)CC2=O)ccn1 (centres unmarked) [Compound 183] | < 4.35 | 101.71% | < 4.35 | 101.67% | < 4.35 | 84.88% |  |  |  |
| COc1ccc(-c2noc(C3CCN(C(=O)CN)CC3)n2)cc1OC [Compound 75] | < 4.35 |  | < 4.35 |  | 4.52 |  |  |  |  |
| CCOc1cnc(-c2noc(C3CCN(C(=O)CNC(=O)c4ccccc4)CC3)n2)nc1OC [Compound 166] | < 4.35 | 105.73% | < 4.35 | 90.07% | < 4.35 | 68.87% |  |  |  |
